Experimental data from US5270204A, “Covalent angiogenin/RNase hybrids” (The President and Fellows of Harvard College, priority 1992, dated 1993).

T1: bovine pancreatic RNase A (Bos taurus, UniProt P61823)
T1 sequence (P61823 27-150): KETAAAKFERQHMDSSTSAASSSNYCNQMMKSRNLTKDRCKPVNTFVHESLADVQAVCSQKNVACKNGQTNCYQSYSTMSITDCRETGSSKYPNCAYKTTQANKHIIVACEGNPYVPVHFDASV

B1: ARH-III, angiogenin/RNase hybrid: human angiogenin with residues 8-22 replaced by residues 7-21 of bovine pancreatic RNase A (Homo sapiens) (protein)
chain: QDNSRYTKFERQHMDSSTSAASDRYCESIMRRRGLTSPCKDINTFIHGNKRSIKAICENKNGNPHRENLRISKSSFQVTTCKLHGGSPWPPCQYRATAGFRNVVVACENGLPVHLDQSIFRRP
notes: the coding region for Met-(-1) through Asn-3; fragment C consisted of the coding region from Arg-24 through Pro-123; made in house; host or cells: E. coli W3110 (plasmid pARH-III)

Columns and labels:
[1] = target: human angiogenin, wild type (Homo sapiens, UniProt P03950); conditions: 30 mM Mes, 30 mM NaCl, pH 6.0 at 37° C.; cited from earlier work
Sequence of human angiogenin, wild type (P03950 25-147): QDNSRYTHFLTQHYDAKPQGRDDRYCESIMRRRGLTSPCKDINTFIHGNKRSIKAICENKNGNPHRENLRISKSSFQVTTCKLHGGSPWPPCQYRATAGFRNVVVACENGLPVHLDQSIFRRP

[2] = target: T1, bovine pancreatic RNase A; conditions: spectrophotometric assay, 30 mM Mes, 30 mM NaCl, pH 6.0 at 25° C.; cited from earlier work
[3] = substrate: Nc1ccn([C@@H]2O[C@H](CO)[C@@H](OP(=O)(O)OC[C@H]3O[C@@H](n4cnc5c(N)ncnc54)[C@H](O)[C@@H]3O)[C@H]2O)c(=O)n1; assay: Activity toward dinucleotide (3',5') phosphates, HPLC quantitation method; assay type: biochemical, human; conditions: other: ARH-III, 30 mM Mes, 30 mM NaCl, pH 6.0 at 37° C., 0.1 mM substrate, 2.8 μM ARH-III
Procedure: (§1) Activity toward dinucleotide (3', 5') phosphates was determined by an HPLC quantitation method as described by Shapiro et al., 1988, Anal. Biochem. 175: 450-461; Harper and Vallee, 1989, Biochemistry 28: 1875-1884. Reaction mixtures (30 μL) contained 0.1 mM substrate, 2.8 μM ARH-III and were incubated for 4-24 hours at 37° C.
(§2) The enzymatic activities of ARH-III toward tRNA, 18S and 28S rRNA, and dinucleotide substrates were very similar to those of angiogenin. […] Angiogenin and RNase A (obtained from Cooper Biochemicals) had maximal activities under these assay conditions at pH ~6.8 and ~8.1, respectively, consistent with previous results obtained by Lee & Vallee, 1989b, Biochem. and Biophys. Res. Commun. 161: 121-126. It is known that angiogenin catalyzes the cleavage of dinucleotide substrates, but at rates 5-6 orders of magnitude lower than those observed for RNase A (Shapiro et al., 1988, Anal. Biochem. 175: 450-461; Harper & Vallee, 1989, Biochemistry 28: 1875-1884). Its specificity is different from that of RNase A based on kcat /Km values for 4 different dinucleotides. In all cases, kcat /Km values were within 30% of those observed for angiogenin, and the relative specificity for the substrates was unchanged.
(§3) ^a Assays with ARHIII and angiogenin were performed in 30 mM Mes, 30
(§4) mM NaCl, pH 6.0 at 37° C.

[4] = substrate: Nc1ncnc2c1ncn2[C@@H]1O[C@H](COP(=O)(O)O[C@H]2[C@@H](O)[C@H](n3ccc(=O)[nH]c3=O)O[C@@H]2CO)[C@@H](O)[C@H]1O; assay: as above; assay type: biochemical, human; conditions: other: ARH-III, 30 mM Mes, 30 mM NaCl, pH 6.0 at 37° C., 0.1 mM substrate, 2.8 μM ARH-III
Procedure: as §1, §2, §3, §4

[5] = substrate: Nc1nc2c(ncn2[C@@H]2O[C@H](COP(=O)(O)O[C@H]3[C@@H](O)[C@H](n4ccc(=O)[nH]c4=O)O[C@@H]3CO)[C@@H](O)[C@H]2O)c(=O)[nH]1; assay: as above; assay type: biochemical, human; conditions: other: ARH-III, 30 mM Mes, 30 mM NaCl, pH 6.0 at 37° C., 0.1 mM substrate, 2.8 μM ARH-III
Procedure: as §1, §2, §3, §4

[6] = substrate: Nc1ccn([C@@H]2O[C@H](CO)[C@@H](OP(=O)(O)OC[C@H]3O[C@@H](n4cnc5c(=O)[nH]c(N)nc54)[C@H](O)[C@@H]3O)[C@H]2O)c(=O)n1; assay: as above; assay type: biochemical, human; conditions: other: ARH-III, 30 mM Mes, 30 mM NaCl, pH 6.0 at 37° C., 0.1 mM substrate, 2.8 μM ARH-III
Procedure: as §1, §2, §3, §4

Row | Molecule | kcat/Km [1] [M⁻¹ s⁻¹] | kcat/Km [2] [M⁻¹ s⁻¹] | kcat/Km [3] [M⁻¹ s⁻¹] | kcat/Km [4] [M⁻¹ s⁻¹] | kcat/Km [5] [M⁻¹ s⁻¹] | kcat/Km [6] [M⁻¹ s⁻¹]
1 | Nc1ccn([C@@H]2O[C@H](CO)[C@@H](OP(=O)(O)OC[C@H]3O[C@@H](n4cnc5c(N)ncnc54)[C@H](O)[C@@H]3O)[C@H]2O)c(=O)n1 [CpA, cytidylyl-(3'-5') adenosine] | 12 | 6e+06 | – | – | – | –
2 | Nc1ccn([C@@H]2O[C@H](CO)[C@@H](OP(=O)(O)OC[C@H]3O[C@@H](n4cnc5c(=O)[nH]c(N)nc54)[C@H](O)[C@@H]3O)[C@H]2O)c(=O)n1 [CpG, cytidylyl-(3'-5') guanosine] | 4.0 | 510000 | – | – | – | –
3 | Nc1ncnc2c1ncn2[C@@H]1O[C@H](COP(=O)(O)O[C@H]2[C@@H](O)[C@H](n3ccc(=O)[nH]c3=O)O[C@@H]2CO)[C@@H](O)[C@H]1O [UpA, uridylyl-(3'-5') adenosine] | 1.1 | 4e+06 | – | – | – | –
4 | Nc1nc2c(ncn2[C@@H]2O[C@H](COP(=O)(O)O[C@H]3[C@@H](O)[C@H](n4ccc(=O)[nH]c4=O)O[C@@H]3CO)[C@@H](O)[C@H]2O)c(=O)[nH]1 [UpG, uridylyl-(3'-5') guanosine] | 0.4 | 180000 | – | – | – | –
5 | B1 | – | – | 13 | 0.8 | 0.4 | 3.4
